Experiments:
[1] = system: HBV; assay: HepAD38 antiviral assay: reduction of viral product accumulation (virion DNA by qPCR, HBsAg or HBeAg by ELISA); type: cell-based; conditions: Hepatitis B virus, 120 h; HepAD38 cells, five days after compound addition; 50% reduction of viral product accumulation relative to no drug controls; read-out: HepAD38 EC50
Outline: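 Tetracycline-washed HepAD38 cells treated with compound (DMSO diluted 1:200) for 5 days, or 8 days with media and compound refreshed on d2 and d5. Virion DNA from lysates quantified by qPCR; HBsAg or HBeAg by ELISA. EC50 is the concentration giving 50% reduction versus no-drug controls, reported as ranges A<1 μM, B 1-10 μM, C>10 μM.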

[2] = Compound toxicity, ATPLite total ATP levels; type: cell-based; conditions: human, HepAD38 cells; 15,000 cells/well, three days after compound addition; 50% reduction of total ATP levels relative to no drug controls
Procedure: Methods: HepAD38 cells are maintained as previously reported (Ladner et al, Antimicrob. Agents Chemother. 1997, […], 1715). Briefly, cells are passaged upon attaining confluency in DMEM/F12 media in the presence of 10% FBS, Penn/Strep, 250 μg/mL G418, and 1 ug/ml tetracycline. Novel compounds are screened by first washing cells three times with PBS to remove tetracycline, and plating in 96 well plates at 35,000 cells/well. Compounds dissolved in DMSO are then diluted 1:200 into wells containing cells. Five days after compound addition, material is harvested for analysis. For an extended 8 day analysis, cells are plated and treated as described above, but media and compound are refreshed on d2 and d5 post initial treatment.
Compound toxicity is evaluated by seeding cells at 15,000 cells/well and treating with compound as described above. Three days after compound addition, cells are treated with ATPLite reagent and compound concentrations that reduce total ATP levels in wells by 50% relative to no drug controls (CC50) are reported; CC50 ranges are as follows: A>30 μM; B 10-30 μM; C<10 μM.

Compound | EC50 [1] | CC50 at 3 days [2]
COC1CCN(S(=O)(=O)c2cc(-c3ncc(-c4ccc(F)c(Br)c4)[nH]3)ccc2Cl)CC1 [Example 39] | < 1 µM | 10 to 30 µM
O=S(=O)(c1cc(-c2nc(-c3ccc(F)cc3)c[nH]2)ccc1Cl)N1CCC(O)CC1 [Example 40] | 1 to 10 µM | > 30 µM
CC(C)OC(=O)[C@@H](C)NS(=O)(=O)c1cc(-c2ncc(-c3ccc(F)c(Br)c3)[nH]2)ccc1Cl [Example 41] | 1 to 10 µM | > 30 µM
O=S(=O)(c1cc(-c2ncc(-c3ccc(F)c(Br)c3)[nH]2)ccc1Cl)N1CCOCC1 [Example 42] | < 1 µM | 10 to 30 µM
O=S(=O)(NCCCO)c1cc(-c2ncc(-c3ccc(F)c(Br)c3)[nH]2)ccc1Cl [Example 43] | < 1 µM | 10 to 30 µM
O=S(=O)(c1cc(-c2ncc(-c3ccc(F)c(Br)c3)[nH]2)ccc1Cl)N1CCC(F)CC1 [Example 44] | < 1 µM | < 10 µM
Cc1cc(-c2cnc(-c3ccc(Cl)c(S(=O)(=O)N4CCC(O)CC4)c3)[nH]2)ccc1F [Example 45] | < 1 µM | > 30 µM
COc1cc(-c2cnc(-c3ccc(Cl)c(S(=O)(=O)N4CCC(O)CC4)c3)[nH]2)ccc1F [Example 46] | < 1 µM | > 30 µM
N#Cc1ccc(-c2cnc(-c3ccc(Cl)c(S(=O)(=O)N4CCC(O)CC4)c3)[nH]2)cc1F [Example 47] | < 1 µM | > 30 µM
O=S(=O)(c1cc(-c2ncc(-c3ccc(F)c(C4CC4)c3)[nH]2)ccc1Cl)N1CCC(O)CC1 [Example 48] | < 1 µM | 10 to 30 µM
O=S(=O)(c1cc(-c2ncc(-c3cccc(F)c3)[nH]2)ccc1Cl)N1CCC(O)CC1 [Example 49] | < 1 µM | 10 to 30 µM
O=S(=O)(c1cc(-c2ncc(-c3cccnc3)[nH]2)ccc1Cl)N1CCC(O)CC1 [Example 50] | 1 to 10 µM | > 30 µM
O=S(=O)(c1cc(-c2nc(-c3ccncc3)c[nH]2)ccc1Cl)N1CCC(O)CC1 [Example 51] | > 10 µM | > 30 µM
O=S(=O)(c1cc(-c2nc(-c3ccc(Cl)cc3)c[nH]2)ccc1Cl)N1CCC(O)CC1 [Example 52] | < 1 µM | 10 to 30 µM
O=S(=O)(c1cc(-c2nc(-c3cccc(Cl)c3)c[nH]2)ccc1Cl)N1CCC(O)CC1 [Example 53] | < 1 µM | 10 to 30 µM
O=S(=O)(c1cc(-c2nc(-c3cccc(Br)c3)c[nH]2)ccc1Cl)N1CCC(O)CC1 [Example 54] | < 1 µM | > 30 µM
O=S(=O)(c1cc(-c2nc(-c3ccc(F)c(C(F)(F)F)c3)c[nH]2)ccc1Cl)N1CCC(O)CC1 [Example 55] | < 1 µM | 10 to 30 µM
CC(C)(C)OC(=O)NCCCNS(=O)(=O)c1cc(-c2ncc(-c3ccc(F)c(Br)c3)[nH]2)ccc1Cl [Example 56] | < 1 µM | < 10 µM
CN(C)S(=O)(=O)c1cc(-c2ncc(-c3ccc(F)c(Br)c3)[nH]2)ccc1Cl [Example 57] | 1 to 10 µM | 10 to 30 µM
COC(=O)[C@H]1CCN(S(=O)(=O)c2cc(-c3ncc(-c4ccc(F)c(Br)c4)[nH]3)ccc2Cl)C1 [Example 58] | 1 to 10 µM | > 30 µM
O=C1CCN(S(=O)(=O)c2cc(-c3nc(-c4ccc(Br)c(F)c4)c[nH]3)ccc2Cl)CC1 [Example 59] | < 1 µM | 10 to 30 µM
COC(=O)[C@@H](NS(=O)(=O)c1cc(-c2ncc(-c3ccc(F)c(Br)c3)[nH]2)ccc1Cl)C(C)C [Example 60] | 1 to 10 µM | 10 to 30 µM
NCCCNS(=O)(=O)c1cc(-c2ncc(-c3ccc(F)c(Br)c3)[nH]2)ccc1Cl [Example 61] | 1 to 10 µM | < 10 µM

Compound | EC50 [1] | CC50 at 3 days [2]
COC(=O)NCCCNS(=O)(=O)c1cc(-c2ncc(-c3ccc(F)c(Br)c3)[nH]2)ccc1Cl [Example 62] | 1 to 10 µM | 10 to 30 µM
COC(=O)NCCCNS(=O)(=O)c1cc(-c2ncc(-c3ccc(F)c(Br)c3)n2C(=O)OC)ccc1Cl [Example 63] | 1 to 10 µM | 10 to 30 µM
O=C1CN(S(=O)(=O)c2cc(-c3ncc(-c4ccc(F)c(Br)c4)[nH]3)ccc2Cl)CCN1 [Example 64] | 1 to 10 µM | 10 to 30 µM
O=S(=O)(c1cc(-c2ncc(-c3ccc(F)c(O)c3)[nH]2)ccc1Cl)N1CCC(O)CC1 [Example 65] | > 10 µM | > 30 µM
O=S(=O)(c1cc(-c2nc(-c3ccc(Br)cc3)c[nH]2)ccc1Cl)N1CCC(O)CC1 [Example 66] | < 1 µM | 10 to 30 µM
Cc1cc(F)ccc1-c1c[nH]c(-c2ccc(Cl)c(S(=O)(=O)N3CCC(O)CC3)c2)n1 [Example 67] | 1 to 10 µM | 10 to 30 µM
O=S(=O)(c1cc(-c2nc(-c3ccccc3F)c[nH]2)ccc1Cl)N1CCC(O)CC1 [Example 68] | 1 to 10 µM | > 30 µM
O=S(=O)(c1cc(-c2nc(-c3ccsc3)c[nH]2)ccc1Cl)N1CCC(O)CC1 [Example 69] | 1 to 10 µM | > 30 µM
O=S(=O)(c1cc(-c2nc(-c3ccc(Cl)c(Cl)c3)c[nH]2)ccc1Cl)N1CCC(O)CC1 [Example 71] | < 1 µM | 10 to 30 µM
O=S(=O)(c1cc(-c2nc(-c3ccc(Cl)c(F)c3)c[nH]2)ccc1Cl)N1CCC(O)CC1 [Example 72] | < 1 µM | 10 to 30 µM
Cc1ccc(-c2c[nH]c(-c3ccc(Cl)c(S(=O)(=O)N4CCC(O)CC4)c3)n2)cc1F [Example 73] | 1 to 10 µM | > 30 µM
O=S(=O)(c1cc(-c2nc(-c3ccc(Br)c(Cl)c3)c[nH]2)ccc1Cl)N1CCC(O)CC1 [Example 82] | < 1 µM | < 10 µM
O=S(=O)(c1cc(-c2nc(-c3ccc(C(F)(F)F)c(F)c3)c[nH]2)ccc1Cl)N1CCC(O)CC1 [Example 83] | < 1 µM | < 10 µM
O=S(=O)(c1cc(-c2nc(-c3ccc(Cl)c(Br)c3)c[nH]2)ccc1Cl)N1CCC(O)CC1 [Example 87] | < 1 µM | < 10 µM
Cc1cccc(-c2c[nH]c(-c3ccc(Cl)c(S(=O)(=O)N4CCC(O)CC4)c3)n2)c1 [Example 91] | 1 to 10 µM | > 30 µM
N#Cc1cccc(-c2c[nH]c(-c3ccc(Cl)c(S(=O)(=O)N4CCC(O)CC4)c3)n2)c1 [Example 92] | 1 to 10 µM | > 30 µM
COc1cccc(-c2c[nH]c(-c3ccc(Cl)c(S(=O)(=O)N4CCC(O)CC4)c3)n2)c1 [Example 93] | > 10 µM | > 30 µM
O=S(=O)(c1cc(-c2nc(-c3cccc(C(F)(F)F)c3)c[nH]2)ccc1Cl)N1CCC(O)CC1 [Example 94] | < 1 µM | 10 to 30 µM
O=S(=O)(c1cc(-c2nc(-c3cccc(OC(F)(F)F)c3)c[nH]2)ccc1Cl)N1CCC(O)CC1 [Example 95] | 1 to 10 µM | > 30 µM
O=S(=O)(c1cc(-c2nc(-c3ccc(C4CC4)cc3)c[nH]2)ccc1Cl)N1CCC(O)CC1 [Example 101] | < 1 µM | < 10 µM
C#Cc1ccc(-c2c[nH]c(-c3ccc(Cl)c(S(=O)(=O)N4CCC(O)CC4)c3)n2)cc1F [Example 102] | 1 to 10 µM | > 30 µM
O=S(=O)(c1cc(-c2nc(-c3ccc4[nH]ccc4c3)c[nH]2)ccc1Cl)N1CCC(O)CC1 [Example 103] | < 1 µM | > 30 µM
